20 molecules from patent US8957078B2, “Compounds useful as inhibitors of ATR kinase” (Vertex Pharmaceuticals Incorporated, priority 2013, dated 2015) can be followed below.

Test [1] deals with HCT116 colorectal cancer cells. Briefly: Cisplatin Sensitization Assay (96 h cell viability MTS). Type of test: cell-based. Conditions: concentration of compound required to reduce the IC50 of Cisplatin alone by at least 3-fold; HCT116, 96 h MTS. On the procedure:
Compounds can be screened for their ability to sensitize HCT116 colorectal cancer cells to Cisplatin using a 96 h cell viability (MTS) assay. […] Compounds and Cisplatin are then both added simultaneously to the cell media in 2-fold serial dilutions from a top final concentration of 10 μM as a full matrix of concentrations in a final cell volume of 200 μl, and the cells are then incubated at 37° C. in 5% CO2. After 96 h, 40 μl of MTS reagent (Promega G358a) is added to each well and the cells are incubated for 1 h at 37° C. in 5% CO2. Finally, absorbance is measured at 490 nm using a SpectraMax Plus 384 reader (Molecular Devices) and the concentration of compound required to reduce the IC50 of Cisplatin alone by at least 3-fold (to 1 decimal place) can be reported.

Test [2] addresses T1, ATR kinase (full-length ATR) (Homo sapiens, UniProt Q13535).
T1 construct: in the presence of 5 nM full-length ATR
Put plainly: ATR Inhibition Assay (radioactive-phosphate incorporation). The format is biochemical. The settings on record: Ki(app); 5 nM full-length ATR, 10 μM ATP, 800 μM target peptide, 25° C. As for the experimental part:
Compounds were screened for their ability to inhibit ATR kinase using a radioactive-phosphate incorporation assay. Assays were carried out in a mixture of 50 mM Tris/HCl (pH 7.5), 10 mM MgCl2 and 1 mM DTT. Final substrate concentrations were 10 μM [γ-33P]ATP (3 mCi 33P ATP/mmol ATP, Perkin Elmer) and 800 μM target peptide (ASELPASQPQPFSAKKK (SEQ. ID NO: 1)).
Assays were carried out at 25° C. in the presence of 5 nM full-length ATR. An assay stock buffer solution was prepared containing all of the reagents listed above, with the exception of ATP and the test compound of interest. 13.5 μL of the stock solution was placed in a 96 well plate followed by addition of 2 μL of DMSO stock containing serial dilutions of the test compound (typically starting from a final concentration of 15 μM with 3-fold serial dilutions) in duplicate (final DMSO concentration 7%). The plate was pre-incubated for 10 minutes at 25° C. and the reaction initiated by addition of 15 μL [γ-33P]ATP (final concentration 10 μM).
The reaction was stopped after […] by the addition of 30 μL 0.1M phosphoric acid containing 2 mM ATP. A multiscreen phosphocellulose filter 96-well plate (Millipore, Cat no. MAPHN0B50) was pretreated with 100 μL 0.2M phosphoric acid prior to the addition of 45 μL of the stopped assay mixture. The plate was washed with 5×200 μL 0.2M phosphoric acid. After drying, 100 μL Optiphase ‘SuperMix’ liquid scintillation cocktail (Perkin Elmer) was added to the well prior to scintillation counting (1450 Microbeta Liquid Scintillation Counter, Wallac).
After removing mean background values for all of the data points, Ki(app) data were calculated from non-linear regression analysis of the initial rate data using the Prism software package (GraphPad Prism version 3.0cx for Macintosh, GraphPad Software, San Diego Calif., USA).

T1 sequence (Q13535 whole entry): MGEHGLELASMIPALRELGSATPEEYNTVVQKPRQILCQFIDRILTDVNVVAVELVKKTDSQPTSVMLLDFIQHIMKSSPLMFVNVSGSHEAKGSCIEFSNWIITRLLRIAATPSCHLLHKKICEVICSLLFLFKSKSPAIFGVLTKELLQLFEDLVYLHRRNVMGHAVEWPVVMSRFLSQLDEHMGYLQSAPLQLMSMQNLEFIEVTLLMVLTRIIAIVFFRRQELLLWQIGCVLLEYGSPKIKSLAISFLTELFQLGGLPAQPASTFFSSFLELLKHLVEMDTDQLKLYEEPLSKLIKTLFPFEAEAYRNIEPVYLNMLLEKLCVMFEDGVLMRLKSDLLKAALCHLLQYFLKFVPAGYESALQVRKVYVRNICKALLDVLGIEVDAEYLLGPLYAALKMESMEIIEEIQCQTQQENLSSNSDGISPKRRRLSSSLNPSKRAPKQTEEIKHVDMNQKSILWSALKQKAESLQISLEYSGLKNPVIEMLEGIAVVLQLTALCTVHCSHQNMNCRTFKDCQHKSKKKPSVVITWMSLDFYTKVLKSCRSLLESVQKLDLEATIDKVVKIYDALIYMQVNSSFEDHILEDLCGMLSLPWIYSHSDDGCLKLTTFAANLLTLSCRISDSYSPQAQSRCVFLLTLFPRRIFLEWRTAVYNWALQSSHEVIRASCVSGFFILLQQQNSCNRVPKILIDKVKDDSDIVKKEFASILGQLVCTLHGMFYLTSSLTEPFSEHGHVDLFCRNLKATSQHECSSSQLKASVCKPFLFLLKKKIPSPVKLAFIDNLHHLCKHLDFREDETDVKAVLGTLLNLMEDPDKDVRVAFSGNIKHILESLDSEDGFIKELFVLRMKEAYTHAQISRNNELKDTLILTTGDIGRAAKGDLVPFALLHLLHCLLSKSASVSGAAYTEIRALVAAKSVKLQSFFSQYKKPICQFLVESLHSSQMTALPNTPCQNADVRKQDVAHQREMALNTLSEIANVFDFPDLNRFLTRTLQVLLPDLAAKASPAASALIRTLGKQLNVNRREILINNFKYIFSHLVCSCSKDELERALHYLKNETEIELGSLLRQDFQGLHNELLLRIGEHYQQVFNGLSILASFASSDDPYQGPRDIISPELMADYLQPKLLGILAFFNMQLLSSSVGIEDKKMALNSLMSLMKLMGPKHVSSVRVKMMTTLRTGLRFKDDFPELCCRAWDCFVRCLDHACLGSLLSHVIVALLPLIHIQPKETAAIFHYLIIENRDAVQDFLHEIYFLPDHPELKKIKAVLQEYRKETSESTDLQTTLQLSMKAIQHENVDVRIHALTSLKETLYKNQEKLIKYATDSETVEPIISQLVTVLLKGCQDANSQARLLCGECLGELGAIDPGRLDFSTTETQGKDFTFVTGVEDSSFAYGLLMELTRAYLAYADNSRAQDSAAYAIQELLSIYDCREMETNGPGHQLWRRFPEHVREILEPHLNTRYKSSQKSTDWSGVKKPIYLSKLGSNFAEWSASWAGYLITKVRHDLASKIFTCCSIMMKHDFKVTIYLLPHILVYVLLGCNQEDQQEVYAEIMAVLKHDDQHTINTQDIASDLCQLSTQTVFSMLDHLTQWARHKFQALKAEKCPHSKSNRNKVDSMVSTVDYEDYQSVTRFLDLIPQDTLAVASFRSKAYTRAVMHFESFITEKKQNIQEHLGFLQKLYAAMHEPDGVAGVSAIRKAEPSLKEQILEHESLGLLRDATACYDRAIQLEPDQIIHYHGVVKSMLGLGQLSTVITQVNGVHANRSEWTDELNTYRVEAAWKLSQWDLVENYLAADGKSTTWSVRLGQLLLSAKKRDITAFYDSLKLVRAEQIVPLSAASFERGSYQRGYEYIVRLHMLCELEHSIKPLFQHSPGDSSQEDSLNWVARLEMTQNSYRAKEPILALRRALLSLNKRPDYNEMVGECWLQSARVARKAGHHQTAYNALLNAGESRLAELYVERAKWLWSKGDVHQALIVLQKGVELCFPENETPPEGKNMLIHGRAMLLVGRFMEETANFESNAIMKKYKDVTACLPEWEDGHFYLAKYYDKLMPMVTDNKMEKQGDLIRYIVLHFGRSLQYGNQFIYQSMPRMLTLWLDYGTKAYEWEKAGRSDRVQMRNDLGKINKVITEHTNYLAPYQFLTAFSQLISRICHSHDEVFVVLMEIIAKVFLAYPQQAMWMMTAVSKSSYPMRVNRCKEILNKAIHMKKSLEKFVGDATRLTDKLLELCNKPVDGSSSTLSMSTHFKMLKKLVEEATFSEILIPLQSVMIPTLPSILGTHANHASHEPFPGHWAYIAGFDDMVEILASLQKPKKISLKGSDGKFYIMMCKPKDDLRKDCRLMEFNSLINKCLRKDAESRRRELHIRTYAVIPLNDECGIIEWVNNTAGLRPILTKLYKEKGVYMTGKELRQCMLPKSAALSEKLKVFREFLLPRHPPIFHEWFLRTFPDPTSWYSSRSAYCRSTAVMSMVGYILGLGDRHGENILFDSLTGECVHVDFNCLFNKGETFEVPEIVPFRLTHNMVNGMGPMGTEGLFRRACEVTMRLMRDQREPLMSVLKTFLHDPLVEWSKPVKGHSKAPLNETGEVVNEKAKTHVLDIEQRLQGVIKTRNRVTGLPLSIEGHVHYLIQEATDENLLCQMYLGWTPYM

On to `Nc1nn2cc(F)cnc2c1C(=O)Nc1cnncc1N1CCCCC1` [I-B-9, 2-amino-6-fluoro-N-(5-(piperidin-1-yl)pyridazin-4-yl)pyrazolo[1,5-a]pyrimidine-3-carboxamide], for which the “Cisplatin Sensitization Assay” value in test [1] is reported as “+++ (Compounds with a Cisplatin sensitization value of <0.02 μM are marked with “+++.”)”. Further, the Ki in test [2] lay in the range of 10 to 1000 nM.
`CC(C)(C)N1CCN(C(=O)C2CCN(c3cnncc3NC(=O)c3c(N)nn4cc(F)cnc34)CC2)CC1` [I-B-10, 2-amino-N-(5-(4-(4-(tert-butyl)piperazine-1-carbonyl)piperidin-1-yl)pyridazin-4-yl)-6-fluoropyrazolo[1,5-a]pyrimidine-3-carboxamide]: in test [1], the “Cisplatin Sensitization Assay” value was “++ (Compounds with a Cisplatin sensitization value >0.02 μM but <0.2 μM are marked with “++.”)”. Further, the Ki in test [2] was in the range of 10 to 1000 nM.
Consider `Cc1nsc(NC(=O)c2c(N)nn3cc(F)cnc23)c1CN1CCCC1` [I-E-17, 2-amino-6-fluoro-N-(3-methyl-4-(pyrrolidin-1-ylmethyl)isothiazol-5-yl)pyrazolo[1,5-a]pyrimidine-3-carboxamide], for which the “Cisplatin Sensitization Assay” value in test [1] is recorded as “+++ (Compounds with a Cisplatin sensitization value of <0.02 μM are marked with “+++.”)”. Besides, the Ki in test [2] was under 10 nM.
On to `Nc1nn2cc(F)cnc2c1C(=O)Nc1cncn1C1CC1` [I-D-3, 2-amino-N-(1-cyclopropyl-1H-imidazol-5-yl)-6-fluoropyrazolo[1,5-a]pyrimidine-3-carboxamide], for which, in test [1], the “Cisplatin Sensitization Assay” value was “+++ (Compounds with a Cisplatin sensitization value of <0.02 μM are marked with “+++.”)”. Further, the Ki in test [2] lay in the range of 10 to 1000 nM.
The matching figures for `Cc1nsc(NC(=O)c2c(N)nn3cc(F)cnc23)c1-n1cccn1` [I-E-10, 2-amino-6-fluoro-N-(3-methyl-4-(1H-pyrazol-1-yl)isothiazol-5-yl)pyrazolo[1,5-a]pyrimidine-3-carboxamide]: “+++ (Compounds with a Cisplatin sensitization value of <0.02 μM are marked with “+++.”)” and under 10 nM.
As for `Cn1cncc1-c1cnncc1NC(=O)c1c(N)nn2cc(F)cnc12` [I-B-15, 2-amino-6-fluoro-N-(5-(1-methyl-1H-imidazol-5-yl)pyridazin-4-yl)pyrazolo[1,5-a]pyrimidine-3-carboxamide], the “Cisplatin Sensitization Assay” value in test [1] was “++ (Compounds with a Cisplatin sensitization value >0.02 μM but <0.2 μM are marked with “++.”)”. Further, in test [2], the Ki was in the range of 10 to 1000 nM.
Regarding `CN(C)[C@H]1CC[C@H](Oc2ncncc2NC(=O)c2c(N)nn3ccc(C(F)(F)F)nc23)CC1` [I-A-13, 2-amino-N-(4-(((1r,4r)-4-(dimethylamino)cyclohexyl)oxy)pyrimidin-5-yl)-5-(trifluoromethyl)pyrazolo[1,5-a]pyrimidine-3-carboxamide], in test [1], the “Cisplatin Sensitization Assay” value is listed as “++ (Compounds with a Cisplatin sensitization value >0.02 μM but <0.2 μM are marked with “++.”)”. For the same molecule, the Ki in test [2] lay in the range of 10 to 1000 nM.
The matching figures for `Cc1nsc(NC(=O)c2c(N)nn3cc(F)cnc23)c1CN1CCOCC1` [I-E-15, 2-amino-6-fluoro-N-(3-methyl-4-(morpholinomethyl)isothiazol-5-yl)pyrazolo[1,5-a]pyrimidine-3-carboxamide]: “+++ (Compounds with a Cisplatin sensitization value of <0.02 μM are marked with “+++.”)” and 10 to 1000 nM.
For `Nc1nn2cc(F)cnc2c1C(=O)Nc1ccncc1N1CCCC1` [I-C-11, 2-amino-6-fluoro-N-(3-(pyrrolidin-1-yl)pyridin-4-yl)pyrazolo[1,5-a]pyrimidine-3-carboxamide], in test [1], the “Cisplatin Sensitization Assay” value was “++ (Compounds with a Cisplatin sensitization value >0.02 μM but <0.2 μM are marked with “++.”)”. Besides, in test [2], the Ki fell in the range of 10 to 1000 nM.
For the molecule `CN1CCN(c2cnncc2NC(=O)c2c(N)nn3cc(F)cnc23)CC1` [I-B-1, 2-amino-6-fluoro-N-(5-(4-methylpiperazin-1-yl)pyridazin-4-yl)pyrazolo[1,5-a]pyrimidine-3-carboxamide], in test [1], the “Cisplatin Sensitization Assay” value was “++ (Compounds with a Cisplatin sensitization value >0.02 μM but <0.2 μM are marked with “++.”)”. In test [2], the Ki was in the range of 10 to 1000 nM.
Take `Cc1cnccc1-c1cnccc1NC(=O)c1c(N)nn2cc(F)cnc12` [I-C-6, 2-amino-6-fluoro-N-(3′-methyl-[3,4′-bipyridin]-4-yl)pyrazolo[1,5-a]pyrimidine-3-carboxamide]: in test [1], the “Cisplatin Sensitization Assay” value is listed as “++ (Compounds with a Cisplatin sensitization value >0.02 μM but <0.2 μM are marked with “++.”)”. Also, in test [2], the Ki lay in the range of 10 to 1000 nM.
In the case of `Cc1ncccc1-c1cnncc1NC(=O)c1c(N)nn2cc(F)cnc12` [I-B-4, 2-amino-6-fluoro-N-(5-(2-methylpyridin-3-yl)pyridazin-4-yl)pyrazolo[1,5-a]pyrimidine-3-carboxamide], the “Cisplatin Sensitization Assay” value in test [1] is listed as “+++ (Compounds with a Cisplatin sensitization value of <0.02 μM are marked with “+++.”)”. Further, in test [2], the Ki was in the range of 10 to 1000 nM.
For `Cc1nsc(NC(=O)c2c(N)nn3cc(F)cnc23)c1-c1ccncc1` [I-E-14, 2-amino-6-fluoro-N-(3-methyl-4-(pyridin-4-yl)isothiazol-5-yl)pyrazolo[1,5-a]pyrimidine-3-carboxamide], the “Cisplatin Sensitization Assay” value in test [1] was “+++ (Compounds with a Cisplatin sensitization value of <0.02 μM are marked with “+++.”)”. Further, in test [2], the Ki was 10 to 1000 nM.
As for `Cc1nncc(NC(=O)c2c(N)nn3cc(F)cnc23)c1N1CCC(C(=O)N2CCN(C)CC2)CC1` [I-B-14, 2-amino-6-fluoro-N-(6-methyl-5-(4-(4-methylpiperazine-1-carbonyl)piperidin-1-yl)pyridazin-4-yl)pyrazolo[1,5-a]pyrimidine-3-carboxamide], in test [1], the “Cisplatin Sensitization Assay” value was “+++ (Compounds with a Cisplatin sensitization value of <0.02 μM are marked with “+++.”)”. In test [2], the Ki fell in the range of 10 to 1000 nM.
For `Cc1ncc(NC(=O)c2c(N)nn3cc(F)cnc23)n1-c1ccccc1` [I-D-6, 2-amino-6-fluoro-N-(2-methyl-1-phenyl-1H-imidazol-5-yl)pyrazolo[1,5-a]pyrimidine-3-carboxamide], the “Cisplatin Sensitization Assay” value in test [1] was “+++ (Compounds with a Cisplatin sensitization value of <0.02 μM are marked with “+++.”)”. For the same molecule, the Ki in test [2] was 10 to 1000 nM.
Take `Cc1nsc(NC(=O)c2c(N)nn3cc(F)cnc23)c1C1=CCN(C)CC1` [I-E-5, 2-amino-6-fluoro-N-(3-methyl-4-(1-methyl-1,2,3,6-tetrahydropyridin-4-yl)isothiazol-5-yl)pyrazolo[1,5-a]pyrimidine-3-carboxamide]: the “Cisplatin Sensitization Assay” value in test [1] is recorded as “+++ (Compounds with a Cisplatin sensitization value of <0.02 μM are marked with “+++.”)”. Also, the Ki in test [2] was 10 to 1000 nM.
`Cc1nn(C)cc1-c1c(C)nsc1NC(=O)c1c(N)nn2cc(F)cnc12` [I-E-18, 2-amino-N-(4-(1,3-dimethyl-1H-pyrazol-4-yl)-3-methylisothiazol-5-yl)-6-fluoropyrazolo[1,5-a]pyrimidine-3-carboxamide]: in test [1], the “Cisplatin Sensitization Assay” value was “+++ (Compounds with a Cisplatin sensitization value of <0.02 μM are marked with “+++.”)”. Also, in test [2], the Ki lay within 10 to 1000 nM.
For `Nc1nn2cc(F)cnc2c1C(=O)Nc1cnncc1N1CCC(C(=O)N2CC(F)(F)C2)CC1` [I-B-21, 2-amino-N-(5-(4-(3,3-difluoroazetidine-1-carbonyl)piperidin-1-yl)pyridazin-4-yl)-6-fluoropyrazolo[1,5-a]pyrimidine-3-carboxamide], the “Cisplatin Sensitization Assay” value in test [1] is listed as “+++ (Compounds with a Cisplatin sensitization value of <0.02 μM are marked with “+++.”)”. The Ki in test [2] fell in the range of 10 to 1000 nM.
On to `Nc1nn2cc(F)cnc2c1C(=O)Nc1cncnc1OC1CCN(C2COC2)CC1` [I-A-8, 2-amino-6-fluoro-N-(4-((1-(oxetan-3-yl)piperidin-4-yl)oxy)pyrimidin-5-yl)pyrazolo[1,5-a]pyrimidine-3-carboxamide], for which, in test [1], the “Cisplatin Sensitization Assay” value is listed as “+++ (Compounds with a Cisplatin sensitization value of <0.02 μM are marked with “+++.”)”. In addition, the Ki in test [2] was 10 to 1000 nM.
In the case of `CC(C)Oc1ncncc1NC(=O)c1c(N)nn2cc(F)cnc12` [I-A-14, 2-amino-6-fluoro-N-(4-isopropoxypyrimidin-5-yl)pyrazolo[1,5-a]pyrimidine-3-carboxamide], in test [1], the “Cisplatin Sensitization Assay” value was “++ (Compounds with a Cisplatin sensitization value >0.02 μM but <0.2 μM are marked with “++.”)”. Moreover, the Ki in test [2] was in the range of 10 to 1000 nM.
